Data as given in patent publication US9980979B2, “Compounds and methods for enhancing erythropoiesis” (NATIONAL YANG-MING UNIVERSITY, priority 2008, dated 2018).

Columns and labels:
erythropoietin (Epo) [1] = assay: liver expression of Epo in cisplatin-induced acute renal failure animal model (PCR); assay type: in vivo, mouse; details: 30~90 mg/kg/day, day 28, versus untreated control group; FIG. 9
Experimental: (§1) The effects of Compound A treatment on cisplatin-induced acute renal failure animal model were investigated. C57BL/6JNarl mice (8-week-old) were purchased from the National Laboratory Animal Center (NLAC, Taiwan). Cisplatin (Sigma-Aldrich) was dissolved in normal saline (0.9% (w/v) sodium chloride, Sigma-Aldrich) at a concentration of 1 mg/ml, and injected into mice intraperitoneally (i.p.) according to the following schedule: day 1, 7 mg/kg; day 5, 6 mg/kg; and day 9, 6 mg/kg. For cisplatin-untreated normal mice group, normal saline injections of corresponding volumes were given i.p. in parallel. At day 13, serum samples were collected and blood urea nitrogen (BUN) contents were assayed. […]
(§2) At the end of the experiments described in EXAMPLE 6 (i.e., day 28), mice were sacrificed, kidney and liver tissues were removed, and bone marrow cells were isolated. […] The reverse-transcribed cDNA samples were analyzed by PCR using ABI GeneAmp™ system 2700 (Applied Biosystems) and the SYBR Green Master Mix kit (Applied Biosystems) using primers targeting toward mouse glyceraldehyde 3-phosphate dehydrogenase (GAPDH) (SEQ ID NOs: 5 and 6), erythropoietin (Epo) (SEQ ID NOs: 3 and 4) and hepatocyte growth factor (HGF) (SEQ ID NOs: 7 and 8) (Table 1). Results were expressed as relative index±S.E. (n=5˜6). […]

erythropoietin (Epo) [2] = assay: Epo expression in isolated hepatocytes (RT-PCR); assay type: cell-based, mouse; details: 0.1-12.5 μg/ml, 24 hours; FIG. 4
Experimental: C57BL/6JNarl mice, 8-10 weeks of age, were purchased from the National Laboratory Animal Center (NLAC, Taiwan). The hepatocytes were isolated as previously described with modifications (Kreamer et al., 1986). Briefly, mice were anaesthetized with Avertin (2% (w/v) 2,2,2-tribromoethanol, i.p., 300 mg/Kg body weight) and the liver was perfused in situ through portal vein with a calcium-free Hank's balanced salt solution (HBSS) containing 0.5 mM Ethylene glycol-bis(2-aminoethylether)-N,N,N′,N′-tetraacetic acid (EGTA; Sigma-Aldrich). […] After 10 min of perfusion, HBSS containing 0.05% (w/v) collagenase (Type II; Worthington Biochemical Corporation) and 1 mM calcium chloride (Sigma-Aldrich) was introduced into the perfusion apparatus. The perfusion was continued for another 10 min at the same flow rate. The partially digested liver was removed, placed in a 60-mm culture dish (BD Falcon) containing HBSS, and gently minced to open the liver capsula. […]
The isolated hepatocytes were plated in 6-well plates (Costar) at approximately 6×10^5 cells/well in DMEM medium (Gibco/Invitrogen) containing 10% FBS (Gibco) in a humidified 37° C. incubator containing 5% CO2-95% air. […] The RNA of hepatocyte was extracted by RNA-Bee™ RNA isolation solvent (Tel-test) for reverse transcription, and the transcripts analyzed by PCR as previously described.

[3] = tested on: hepatocyte growth factor (HGF); assay: liver expression of HGF in cisplatin-induced acute renal failure animal model (PCR); assay type: in vivo, mouse; details: 10~90 mg/Kg/day, day 28; FIG. 10
Experimental: as §1, §2

OC[C@H]1O[C@@H](Oc2c(O)cc(O)cc2/C=C/c2ccc(O)cc2)[C@H](O)[C@@H](O)[C@@H]1O [Compound A, 2,3,5,4′-tetrahydroxystilbene 2-O-β-D-glucopyranoside]
expression of Epo in liver (relative index) (erythropoietin (Epo) [1]): significantly increased the expression of Epo in liver | expression of Epo in hepatocytes (erythropoietin (Epo) [2]): enhanced the expression of Epo in hepatocytes | expression of HGF in liver tissue (relative index) [3]: enhanced the expression of HGF in liver tissue
